In publication PMC11012289, “The Discovery of New Inhibitors of Insulin-Regulated Aminopeptidase by a High-Throughput Screening of 400,000 Drug-like Compounds” (International Journal of Molecular Sciences, 2024):
Like-named read-outs stand apart in the source and are kept apart here. Where no end group is shown, it is not given here. [ ]: non-standard residue; d: D form. Nle = CCCC[C@H](N)C(=O)O

What was measured:
[1] = system: primary hippocampal neuron cultures; set-up: method as in PMID 26769413, PMID 36286055; details: cited from earlier work
rodents = system: rodents; set-up: method as in PMID 19233301, PMID 18716029; details: intracerebroventricular administration; cited from earlier work
IRAP [2] = biological target: IRAP; set-up: method as in PMID 18716029; details: cited from earlier work
[3] = system: APN, ERAP1, ERAP2, and LTA4H; details: cited from earlier work
[4] = cited from earlier work
IRAP [5] = biological target: T1, IRAP (Homo sapiens, UniProt Q9UIQ6); assay: Orthogonal absorbance IRAP assay (L-Leucine para-nitroanilide cleavage); type: biochemical; details: 1 mM L-Leucine p-Nitroanilide, 120 min RT; for IC50: read-out: Absorbance pIC50 (converted)
T1 construct: The screen was performed with the soluble truncated IRAP enzyme; made in house
T1 sequence (Q9UIQ6 155-1025 limits assumed): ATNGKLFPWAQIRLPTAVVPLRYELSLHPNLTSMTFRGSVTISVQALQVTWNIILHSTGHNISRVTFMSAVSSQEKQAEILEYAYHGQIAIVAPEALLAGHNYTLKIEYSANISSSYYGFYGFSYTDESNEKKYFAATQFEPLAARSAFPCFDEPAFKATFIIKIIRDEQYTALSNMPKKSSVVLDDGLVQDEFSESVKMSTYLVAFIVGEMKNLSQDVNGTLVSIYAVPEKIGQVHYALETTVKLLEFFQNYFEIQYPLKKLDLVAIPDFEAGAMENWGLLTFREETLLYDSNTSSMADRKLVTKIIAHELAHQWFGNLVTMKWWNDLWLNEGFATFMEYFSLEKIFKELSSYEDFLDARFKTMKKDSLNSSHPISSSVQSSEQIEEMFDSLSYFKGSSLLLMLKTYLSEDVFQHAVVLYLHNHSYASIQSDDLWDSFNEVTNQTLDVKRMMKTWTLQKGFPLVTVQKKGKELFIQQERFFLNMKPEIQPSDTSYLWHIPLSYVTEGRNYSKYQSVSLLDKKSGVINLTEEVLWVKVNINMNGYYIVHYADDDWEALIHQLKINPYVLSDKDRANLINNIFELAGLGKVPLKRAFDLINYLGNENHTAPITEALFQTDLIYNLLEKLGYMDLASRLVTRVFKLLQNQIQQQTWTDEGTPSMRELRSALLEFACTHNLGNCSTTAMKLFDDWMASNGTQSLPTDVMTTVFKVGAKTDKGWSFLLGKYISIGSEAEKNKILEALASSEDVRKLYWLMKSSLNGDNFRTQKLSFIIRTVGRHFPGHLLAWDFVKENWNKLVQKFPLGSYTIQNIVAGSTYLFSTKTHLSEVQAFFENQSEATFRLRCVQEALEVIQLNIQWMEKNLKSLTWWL
Method in brief: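 Absorbance assay: IRAP protein at 2.5 × 10^−4 mg/mL final with 1 mM L-leucine para-nitroanilide in buffer containing 0.05% BSA; 120 min at RT in the dark. para-Nitroaniline read at 405 nm. Dose–response spanned 20 μM–27.4 nM compound, 1% DMSO.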

IRAP [6] = biological target: T1, IRAP; assay: Primary fluorescence IRAP assay (L-Leucine-7-amido-4-methylcoumarin cleavage); type: biochemical; details: for IC50 / Fluorescence pIC50: 37.5 µM L-Leucine-7-amido-4-methylcoumarin, 60 min RT, dose-response 20 µM-27.4 nM; for IC50: read-out: Fluorescence IC50; for LipE: calculated from (pIC50Fluorescence − LogD)
IRAP [7] = biological target: T1, IRAP; assay: Thermal shift (TSA) IRAP assay; type: binding; details: screening hits at 30 µM, 1% DMSO
IRAP [8] = biological target: T1, IRAP; assay: Deselection fluorescence IRAP assay with 10 µM zinc; type: biochemical; details: 10 µM ZnSO4 in assay buffer; for IC50: read-out: Fluorescence + Zn pIC50 (converted)
[9] = set-up: method as in ELF screening history; details: ref ELF screening history, cited from earlier work; for Enzyme Active: number of ELF enzyme screens in which the compound was active; for Targets active: number of ELF screens in which the compound was active; for Enzyme Active %: share of ELF enzyme targets screened; for Targets Active %: share of all ELF targets screened
rats = details: cited from earlier work
IRAP [10] = details: read-out: Ki (affinity to IRAP); cited from earlier work

Molecule | IC50 (IRAP [6]) [µM] | LipE (IRAP [6]) | Enzyme Active [9] | Targets active [9] | Enzyme Active % [9] [%] | Targets Active % [9] [%] | Absorbance pIC50 (IRAP [5]) | Fluorescence pIC50 (IRAP [6]) | TSA (∆°C), thermal shift of IRAP (IRAP [7]) [°C] | Fluorescence + Zn pIC50 (IRAP [8]) | also measured
N[C@H]1CCSSC[C@@H](C(=O)NCc2ccccc2CC(=O)O)NC(=O)C[C@H](Cc2ccc(O)cc2)NC1=O [HA08] |  |  |  |  |  |  |  |  |  |  | effect on hydrogen peroxide-induced toxicity [1]: reversed hydrogen peroxide-induced toxicity; effect on spine density [1]: enhanced spine densities
CCOC(=O)C1=C(NC(C)=O)Oc2cc(O)ccc2C1c1cccnc1 (stereo not shown) [HFI-419] |  |  |  |  |  |  |  |  |  |  | effect on cognition (rodents): cognitive-enhancing effect; Ki (IRAP [2]): 0.42 µM; selectivity versus other aminopeptidases [3]: high selectivity
CCOC(=O)C1=C(NC(C)=O)Oc2cc(O)ccc2C1c1cnc2ccccc2c1 (stereo not shown) [HFI-437] |  |  |  |  |  |  |  |  |  |  | Ki (IRAP [2]): 0.02 µM
CC[C@H](C)[C@H](NC(=O)[C@H](Cc1ccc(O)cc1)NC(=O)[C@@H](CN)C(C)C)C(=O)N[C@H]1Cc2c([nH]c3ccccc23)CN(CC(=O)N[C@@H](Cc2ccccc2)C(=O)O)C1=O [IVDE77] |  |  |  |  |  |  |  |  |  |  | metabolic stability [4]: improved metabolic stability
NCC[C@H]1CCCCN1C(=O)Cn1nc(-c2ccc(Cl)nc2)c2c1CCCC2 [QHL38] | 4.68 | 3.06 | 5 | 9 | 6.3 | 6.5 |  |  |  |  | IC50 (IRAP [5]): 11 µM; ΔTm at 30 µM (IRAP [7]): 2.22 °C; IC50 (IRAP [8]): 4.57 µM
CCOC(=O)c1c(Cl)cc(C)nc1N1CCCC(Cc2ccc(C(=O)N(C)C)cc2)C1 (stereo not shown) [QHL39] | 4.68 | 0.66 | 6 | 7 | 7.1 | 4.9 | 5.12 | 5.33 | 0 | 5.33 | 
O=C1CN(c2cc(=O)n3ccn(Cc4ccc(F)cc4Cl)c3n2)CCN1 [QHL40] | 4.68 | 4.38 | 4 | 6 | 4.3 | 4.2 |  |  |  |  | IC50 (IRAP [5]): > 20 µM; ΔTm at 30 µM (IRAP [7]): 0.3 °C; IC50 (IRAP [8]): 5.25 µM
CCCCc1nc2ccn(Cc3cccc(C#N)c3)c(=O)c2n1Cc1cccc(C#N)c1 [QHL41] | 4.68 | 0.59 | 6 | 8 | 7.6 | 5.5 | 5.81 | 5.33 | 0.44 | 5.11 | 
NC(=O)CCc1ccc2c(c1)nc(N)n2Cc1ccc(-c2ccccc2)cc1 [QHL42] | 4.79 | 1.29 | 6 | 12 | 7.3 | 8.1 | 5.40 | 5.32 | 2.96 | 5.32 | 
c1scc2c(N3CCCCCC3)nc(N3CCC3)nc12 [QHL44] | 6.46 | 1.50 | 4 | 6 | 4.3 | 4.0 | < 4.70 | 5.19 | 0.44 | 5.18 | 
CCn1c(=O)n(CC(=O)N(C)CCc2ccc(O)c3[nH]c(=O)sc23)c2ccccc21 [QHL45] | 7.76 | 2.74 | 5 | 11 | 6.0 | 7.9 | 6.09 | 5.11 | 0.89 | 5.12 | 
COCCN1CCc2cnc(NCc3ccc(S(N)(=O)=O)cc3)cc21 [QHL47] | 10.2 | 3.57 | 4 | 6 | 4.7 | 4.2 | 5.51 | 4.99 | 0.3 | 4.99 | 
Cc1cc2nc(N)n(Cc3ccccc3)c2cc1C [QHL49] | 17.8 | 0.76 | 4 | 9 | 4.9 | 6.2 | 5.65 | 4.75 | 0.44 | 4.74 | 
c1ccn(CCCSc2nnc3ccc(N4CCCC4)nn23)c1 [QHL50] | 18.2 | 2.06 | 7 | 11 | 8.1 | 7.6 | 5.36 | 4.74 | 0.44 | 4.7 | 
Leu-Val-Val-Tyr-Pro-Trp-Thr-Gln-Arg-Phe (LVVYPWTQRF; printed: Leu-Val-Val-Tyr-Pro-Trp-Thr-Gln-Arg-Phe) [LVV-hemorphin-7, structural analog of Ang IV] |  |  |  |  |  |  |  |  |  |  | effect on memory retention and retrieval (rats): strong promoters of memory retention and retrieval
Nle-Tyr-Ile-His-Pro-Phe ([Nle]YIHPF) [Nle-Ang IV, structural analog of Ang IV] |  |  |  |  |  |  |  |  |  |  | effect on memory retention and retrieval (rats): strong promoters of memory retention and retrieval
Val-Tyr-Ile-His-Pro-Phe [Ang IV] |  |  |  |  |  |  |  |  |  |  | Ki (IRAP [10]): 0.062 µM; effect on memory and learning (rats; intracerebroventricular injection): improved memory and learning
